Results on 9 compounds are retold here after publication PMC8842277, “Highly Antiproliferative Latonduine and Indolo[2,3-c]quinoline Derivatives: Complex Formation with Copper(II) Markedly Changes the Kinase Inhibitory Profile” (Journal of Medicinal Chemistry, 2022).

Data set [1] deals with multidrug-resistant Colo320 human colon adenocarcinoma cells. Nature of the data set: MTT antiproliferative assay. The class given is cell-based. The note with it: for IC50: MTT, 72 h; for selectivity factor (SF) Colo320: IC50 MRC-5/IC50 Colo320. On the procedure:
(§1) The in vitro antiproliferative activity of the compounds was tested in doxorubicin-sensitive Colo205 and multidrug-resistant Colo320 human colon adenocarcinoma cell lines as well as in normal human embryonal lung fibroblast cells (MRC-5) by MTT assay.
(§2) Human colonic adenocarcinoma cell lines Colo 205 doxorubicin-sensitive (ATCC-CCL-222) and Colo 320/MDR-LRP multidrug resistant over-expressing ABCB1 (MDR1)-LRP (ATCC-CCL-220.1) were purchased from LGC Promochem, Teddington, UK. The cells were cultured in an RPMI 1640 medium supplemented with 10% heat-inactivated fetal bovine serum, 2 mM L-glutamine, 1 mM Na-pyruvate, and 10 mM HEPES. The semi-adherent human colon cancer cells were detached with Trypsin-Versene (EDTA) solution for 5 min at 37 °C. An MRC-5 human embryonal lung fibroblast cell line (ATCC CCL-171) was purchased from LGC Promochem, Teddington, UK. The cells were cultured in Eagle’s minimal essential medium (EMEM, containing 4.5 g L^–1 glucose) supplemented with a non-essential amino acid mixture, a selection of vitamins, and 10% heat-inactivated fetal bovine serum. The HCT-116 colon carcinoma cells and isogenic p53-knock-out subline were a gift of Prof. Bert Vogelstein from The Johns Hopkins Oncology Center. Cells were cultured in McCoy’s 5A medium supplemented with 10% heat-inactivated fetal bovine serum and 4 mM L-glutamine. All cell lines were incubated at 37 °C, in a 5% CO2, 95% air atmosphere.
(§3) MRC-5 non-cancerous human embryonic lung fibroblast and human colonic adeno-carcinoma cell lines (doxorubicin-sensitive Colo 205 and multidrug resistant Colo 320 colonic adenocarcinoma cells) were used to determine the effect of compounds on cell growth. The effects of increasing concentrations of compounds on cell growth were tested in 96-well flat-bottomed microtiter plates. The compounds were dissolved in DMSO and stock solutions of 10 mM were prepared. These were further diluted in the appropriate cell culture medium by twofold serial dilution starting from 100 or 10 μM for the compounds. The adherent human embryonal lung fibroblast cells were cultured in 96-well flat-bottomed microtiter plates using EMEM supplemented with 10% heat-inactivated fetal bovine serum. The density of the cells was adjusted to 1 × 10^4 cells in 100 μL per well, the cells were seeded for 24 h at 37 °C, 5% CO2, then the medium was removed from the plates containing the cells, and the dilutions of compounds previously made in a separate plate were added to the cells in 200 μL. In the case of the colonic adenocarcinoma cells, the twofold serial dilutions of compounds were prepared in 100 μL of RPMI 1640, horizontally. The semi-adherent colonic adenocarcinoma cells were treated with Trypsin-Versene (EDTA) solution. They were adjusted to a density of 1 × 10^4 cells in 100 μL of RPMI 1640 medium and were added to each well, with the exception of the medium control wells. The final volume of the wells containing compounds and cells was 200 μL. The culture plates were incubated at 37 °C for 72 h; at the end of the incubation period, 20 μL of MTT (thiazolyl blue tetrazolium bromide, Sigma) solution (from a stock solution of 5 mg mL^–1) was added to each well. After incubation at 37 °C for 4 h, 100 μL of sodium dodecyl sulfate (SDS) (Sigma) solution (10% in 0.01 M HCI) was added to each well and the plates were further incubated at 37 °C overnight. Cell growth was determined by measuring the optical density (OD) at 540/630 nm with a Multiscan EX ELISA reader (Thermo Labsystems, Cheshire, WA, USA). […] Curves were fitted by GraphPad Prism software[57] using the sigmoidal dose–response model (comparing variable and fixed slopes). The IC50 values were obtained from at least three independent experiments. Tests in adherent HCT-116 colon carcinoma cells and an isogenic p53-knock-out subline thereof were performed in a similar manner, with 1.5 × 10^3 cells seeded in 100 μL of McCoy’s 5A medium (Sigma-Aldrich) per well. […]
On the technique in general: Tetrazolium assays rely on reduction of a dye to a coloured formazan, in cell work by metabolically active cells.

Data set [2] relates to normal human embryonal lung fibroblast cells (MRC-5). Nature of the data set: MTT antiproliferative assay. The class given is cell-based. Particulars: read-out: IC50 MRC-5 benign, mean. The protocol: as §1, §2, §3
For data set [3], the system named is doxorubicin-sensitive Colo205 human colon adenocarcinoma cells. In words: MTT antiproliferative assay. The class given is cell-based. Particulars: for IC50: MTT, 72 h; for selectivity factor (SF) Colo205: IC50 MRC-5/IC50 Colo205. The protocol:
as §1, §2, §3

The nature of data set [4]: Thermodynamic solubility, UV–vis of saturated solutions. On the procedure: The concentration of the compounds was determined by UV–vis spectrophotometry using stock solutions of the compounds with a known concentration dissolved in pure DMSO and 50% (v/v) DMSO/buffered aqueous solution for the calibration.
Data set [5] can be described thus: Overall stability constants of copper(II) complexes by UV–vis titration. In kind it is physicochemical. The note with it: 30–70% (w/w) DMSO–water, 298 K. An excerpt: The tridentate coordination via the N,N,N donor set is assumed in [Cu(HL^1nm)]^2+ at such low pH. […] The deprotonation of the non-coordinating hydrazonic nitrogen is likely, and complex [Cu(L^1nm)]^+ is formed. […] However, the absorbance is decreased in the whole wavelength range due to precipitate formation. By the deconvolution of the recorded UV–vis spectra, overall stability constants for the complexes [Cu(HL^1nm)]^2+ and [Cu(L^1nm)]^+ were computed, and log β for [Cu(L^1nm)(OH)] was only estimated (Table 1). In the case of the morpholine hybrid, a somewhat different speciation was obtained as the presence of the pendant morpholine moiety had to be taken into consideration. Log β values for [CuH(HL^1)]^3+, [CuH(L^1)]^2+, and [Cu(L^1)]^+ were computed from the spectrophotometric titration data (Table 1). Since the molar absorbance spectra of [CuH(HL^1)]^3+ and [CuH(L^1)]^2+ complexes resemble those of [Cu(HL^1nm)]^2+ and [Cu(L^1nm)]^+ (Figure 4b), the same coordination modes are likely in these species in couples. […] Increasing the pH (pH > 5), the absorbance is decreased in the whole wavelength range, no isosbestic points are found (indicating the formation of some precipitate), while the λmax is increased. Formation of a mixed hydroxido species [CuH(L^1)(OH)]^+ is also possible. However, the deprotonation of the morpholinium group can take place as well (formation of [Cu(L^1)]^+) in this pH range. As these two processes are overlapping, the two species could not be well distinguished, and the obtained stability constant is quite uncertain.
(§4) An Agilent Carry 8454 diode array spectrophotometer was used to record the UV–visible (UV–vis) spectra in the interval 200–800 nm. The path length was 2 or 0.5 cm. Spectrophotometric titrations were performed on samples containing the proligands HL^1, HL^1nm, or their copper(II) complexes (1 and 1nm; see Chart 2) by a KOH solution in the presence of 0.1 M KCl in a DMSO:water 30:70 (w/w) mixture as a solvent at 25.0 ± 0.1 °C in the pH range from 2 to 11. […] An Orion 710A pH meter equipped with a Metrohm combined electrode (type 6.0234.100) and a Metrohm 665 Dosimat burette were used for the pH measurements and titrations. […] The average water ionization constant (pKw) is 14.52 ± 0.05, which corresponds well to the literature data.[103] Argon was passed over the solutions during the titrations. Proton dissociation constants (pKa) of the ligand, overall stability constants (log β) of the copper(II) complexes, and the individual spectra of the various species present in the solution were calculated by the computer program PSEQUAD.[104] β (MpLqHr) is defined for the general equilibrium pM + qL + rH MpLqHr as β (MpLqHr) = [MpLqHr]/[M]^p[L]^q[H]^r where M denotes the copper(II) ion and L the completely deprotonated ligand. The calculations were always made from the experimental titration data measured in the absence of any precipitate in the solution.

Data set [6] in a line: Proton dissociation constants by UV–vis titration. Particulars: 30–70% (w/w) DMSO–water, 298 K, I = 0.10 M (KCl); for pKa: DMSO:water 30:70 (w/w) solvent mixture. In kind it is physicochemical. On the procedure: The protonation processes of HL^1nm and its morpholine counterpart HL^1 (Chart 3) and the solution stability of their copper(II) complexes (1nm and 1) were characterized by UV–vis spectrophotometry. […] Based on the characteristic changes in the UV–vis spectra for HL^1nm in the pH range 2–6 (Figure 3a), two relatively well-separated proton dissociation processes were observed and their pKa values were determined (Table 1).
as §4

Data set [7] can be described thus: Solubility in water/DMSO 99/1. In kind it is physicochemical. On the procedure:
To a solution of HL^1 (203 mg, 0.45 mmol) in isopropanol (10 mL) a solution of CuCl2·2H2O (77 mg, 0.45 mmol) in methanol (500 μL) was added. The mixture was heated at reflux for 1 h, cooled to room temperature, and allowed to stand at 4 °C overnight. The product was filtered off, washed with isopropanol (3 mL), and dried in vacuo overnight to give a red-brown powder. Yield: 245 mg. Solubility in water/DMSO 99/1: ≥11 mg mL^–1.

Where “and” joins values, the source holds several entries; their conditions need not be identical. Identical values can stand only once. Like-named read-outs stand apart in the source and are kept apart here.

As a reminder, the IC50 is the concentration that gives 50% inhibition. As for `COc1cccc2c1C(=O)c1c(O)c3c(c(O)c1C2=O)C[C@@](O)(C(=O)CO)C[C@@H]3O[C@H]1C[C@H](N)[C@H](O)[C@H](C)O1` [doxorubicin, reference compound], the half-maximal inhibitory concentration (IC50) in data set [1] (Homo sapiens, COLO 320) was found to be 5430 nM; in data set [2] (Homo sapiens, MRC5, 72 h) it was 11000 nM; in data set [3] (Homo sapiens, COLO 205), 712 nM. For the same compound, the “selectivity factor (SF) Colo320” value in data set [1] is 2.03. Besides, the “selectivity factor (SF) Colo205” value in data set [3] is given as 15.44.

`CC(=NNc1nc2ccccc2c2c1[nH]c1ccccc12)c1ccc(CN2CCOCC2)cn1.[Cl][Cu][Cl]` [compound 7, CuCl2(HL^7)·0.5H2O]: the “selectivity factor (SF) Colo320” value in data set [1] was determined as 4.38. The results for the concentration for half-maximal inhibition (IC50) in data set [1], in data set [2] (72 h) and in data set [3] were 149 nM, 652 nM and 98 nM, respectively. For the same compound, in data set [3], the “selectivity factor (SF) Colo205” value was 6.65. In addition, the results for the “Thermodynamic solubility (S)” value in data set [4] (pH 5) and in data set [4] (pH 7.4) were 89.7 µM and 38.3 µM, respectively.

As to `C(=N\N=C1/NCc2ccccc2-c2c1[nH]c1ccccc21)/c1ccc(CN2CCOCC2)cn1` [HL^1], the “log β [CuH(HL^1)]^3+” value in data set [5] (I = 0.10 M (KCl)) worked out at 12.38 ± 0.01. Moreover, the “log β [CuH(L^1)]^2+” value in data set [5] (I = 0.10 M (KCl)) is reported as 8.57 ± 0.01. The IC50 in data set [2] (Homo sapiens, MRC5, 72 h) was found to be 3020 nM. For the same compound, the pKa was found to be 4.53 ± 0.02 in data set [6] (read-out: pKa2) and 5.65 ± 0.02 in data set [6] (read-out: pKa3).

For `C/C(=N\N=C1/NCc2ccccc2-c2c1[nH]c1ccc(Br)cc21)c1ccccn1` [HL^4nm], the half-inhibitory concentration (IC50) in data set [1] (Homo sapiens, COLO 320) turned out to be 8190 nM; in data set [2] (Homo sapiens, MRC5, 72 h) it was 111 nM; in data set [3] (Homo sapiens, COLO 205), 91 nM. Moreover, the “selectivity factor (SF) Colo320” value in data set [1] is reported as 0.01. Besides, the “selectivity factor (SF) Colo205” value in data set [3] is 1.22.

As for `Brc1ccc2[nH]c3c(NN=Cc4ccc(CN5CCOCC5)cn4)nc4ccccc4c3c2c1.[Cl][Cu][Cl]` [compound 6, CuCl2(HL^6)·1.5H2O], the “selectivity factor (SF) Colo320” value in data set [1] turned out to be 0.26. For the same compound, the IC50 was 851 nM in data set [1], 221 nM in data set [2] (72 h) and 1090 nM in data set [3]. Further, the “selectivity factor (SF) Colo205” value in data set [3] was determined as 0.20. Further, the “Thermodynamic solubility (S)” value in data set [4] (pH 5) came to 6.6 µM; in data set [4] (pH 7.4) it was 0.4 µM.

With `Brc1ccc2[nH]c3c(c2c1)-c1ccccc1CN=C3NN=Cc1ccc(CN2CCOCC2)cn1.[Cl][Cu][Cl]` [compound 2, CuCl2(HL^2)·2H2O], in data set [7], the “Solubility in water/DMSO 99/1” value was at least 14 mg mL^–1. In addition, in data set [1], the “selectivity factor (SF) Colo320” value was 1.73 and it took 3190 nM to reach half-maximal inhibition (IC50). The IC50 in data set [2] (72 h) was 5520 nM. In addition, in data set [3], the “selectivity factor (SF) Colo205” value came to 2.01 and the IC50 stood at 2740 nM.

Turning to `C(=N\N=C1/NCc2ccccc2-c2c1[nH]c1ccccc21)/c1ccccn1` [HL^1nm], in data set [5] (I = 0.10 M (KCl)), the “log β [Cu(HL^1nm)]^2+” value is 8.33 and 8.33 ± 0.01; the “log β [Cu(L^1nm)]^+” value is 4.01 and 4.01 ± 0.01. In addition, in data set [5] (only estimated), the “log β [Cu(L^1nm)(OH)]” value is “–3.1 ± 0.1”. Moreover, the pKa in data set [6] (read-out: pKa1) was 2.32 ± 0.01. The pKa in data set [6] (read-out: pKa2) worked out at 4.75 ± 0.01.

On to `C(=NNC1=NCc2ccccc2-c2c1[nH]c1ccccc21)c1ccccn1.[Cl][Cu][Cl]` [1nm], for which, in data set [6], the “pKa [Cu(HL^1nm)]^2+” value was determined as 4.32 and the “pKa [Cu(L^1nm)]^+” value was determined as 7.09.

Take `CC(=NNC1=NCc2ccccc2-c2c1[nH]c1ccc(Br)cc21)c1ccccn1.[Cl][Cu][Cl]` [4nm]: in data set [1], the “selectivity factor (SF) Colo320” value came out at 0.54 and the IC50 turned out to be 350 nM. Also, the IC50 in data set [2] (72 h) was determined as 190 nM. In data set [3], the “selectivity factor (SF) Colo205” value was found to be 2.29 and half-maximal inhibition (IC50) was put at 83 nM.
